System: S. lividans
Assay type: cell-based
Conditions: relative to S. lividans without the plasmid

SMILES: CC(NC(=O)C(C)NC(=O)C(N)CCP(C)(=O)O)C(=O)O (stereo not shown) [Bialaphos]
- resistance to Bialaphos of S. lividans strains containing pBG20: more than 500 times

Reference: patent USRE44962E1, “Genetically engineered plant cells and plants exhibiting resistance to glutamine synthetase inhibitors, DNA fragments and recombinants for use in the production of said cells and plants” (Bayer Cropscience N.V., priority 1986, dated 2014)
